Results as given in US10351568B2, “Compositions and methods for enhancing proteasome activity” (President and Fellows of Harvard College, priority 2010, dated 2019).

Experiments:
[1] = test system: eight deubiquitinating enzymes of human origin; assay: Deubiquitinase selectivity panel (Ub-AMC hydrolysis); assay type: biochemical; conditions: 17 μM
[2] = test system: proteasome; assay: Proteasome integrity by native PAGE of total cell extracts; assay type: cell-based; conditions: 100 μM IU1, 6-hr
Excerpt: RP2-CP and RP-CP indicate distinct forms of the 26S proteasome.

[3] = test system: GFP-ODC; assay: Degradation of ubiquitin-independent proteasome substrate in cells; assay type: cell-based
Experimental: Proteasome inhibitors (30 μM MG132, 10 μM PS-341) were treated 4 hr before lysis.
(§1) Other proteins that have been implicated in proteotoxic mechanisms were also tested.

[4] = test system: MEF, HEK293 and HeLa cells; assay: MTT cell viability assay; assay type: cell-based; conditions: MTT after 6, 12, 24 or 48 hours
Experimental: (§2) Effects on cell viability became apparent at concentrations over 100 μM, well above the doses required to enhance the degradation of Tau, TDP-43, ataxin-3, and oxidized proteins (FIGS. 21-23).

[5] = Cellular entry, release and stability of compound (LC/MS, UV absorption)
Excerpt: Cell lysates were collected and ethyl acetate extraction was used to prepare mass spectrometer samples.

[6] = test system: MEFs and 293 cells; assay: Cell proliferation by real-time microscopy (confluency); assay type: cell-based
[7] = target: T1, Usp14-containing proteasomes (Homo sapiens, UniProt P54578); assay: In vitro Ubn-ClnB degradation assay; assay type: biochemical
T1 construct: GST (N, cleaved yes); made in house; host or cells: E. coli Rosetta 2 (DE3) for Usp14
Excerpt: (§3) The effect of Usp14 on the degradation of ubiquitinated substrates was examined using an in vitro degradation assay using the ubiquitin-dependent proteasome substrate polyubiquitinated cyclin B (Ubn-ClnB).
It was next tested whether IU1 could serve as an enhancer of substrate degradation by the proteasome.

[8] = target: T2, proteasome-bound form of Uch37 (Homo sapiens, UniProt Q9Y5K5); assay: Ub-AMC hydrolysis by 26S proteasomes not treated with Ub-VS (lacking Usp14); assay type: biochemical
T2 construct: endogenous in cells

[9] = target: T3, Usp14 that had not been loaded onto a proteasome (Homo sapiens, UniProt P54578); assay: Activity of Usp14 not complexed to the proteasome; assay type: biochemical
T3 construct: GST (N, cleaved yes); made in house; host or cells: E. coli Rosetta 2 (DE3)
T3 sequence (P54578 whole entry): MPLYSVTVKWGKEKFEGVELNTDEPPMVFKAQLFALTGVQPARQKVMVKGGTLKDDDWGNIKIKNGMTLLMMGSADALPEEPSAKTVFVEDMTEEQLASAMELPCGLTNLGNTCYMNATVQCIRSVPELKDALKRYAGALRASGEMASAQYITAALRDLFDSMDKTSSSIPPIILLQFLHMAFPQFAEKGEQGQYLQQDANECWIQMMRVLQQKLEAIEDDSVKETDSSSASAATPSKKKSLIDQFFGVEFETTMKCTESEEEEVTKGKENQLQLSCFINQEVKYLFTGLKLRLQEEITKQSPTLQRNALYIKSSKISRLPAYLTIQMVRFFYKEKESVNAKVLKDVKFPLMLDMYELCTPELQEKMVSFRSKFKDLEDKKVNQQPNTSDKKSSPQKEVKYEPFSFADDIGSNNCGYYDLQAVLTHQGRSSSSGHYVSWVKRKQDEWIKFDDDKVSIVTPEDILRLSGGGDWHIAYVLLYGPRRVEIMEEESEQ

[10] = test system: Tau; assay: Tau degradation in MEF cells (immunoblot, RT-PCR); assay type: cell-based
Excerpt: No effect was seen on Tau mRNA levels (FIG. 21B).

[11] = test system: TDP-43; assay: TDP-43 depletion in MEF cells (immunoblot); assay type: cell-based; conditions: 75 μM IU1
Experimental: as §1

[12] = Compound concentration in serum-containing media / release, 293 cells; assay type: in vitro ADME; conditions: 1 hr to 48 hr
Experimental: The experiment was performed as in FIG. 42A.

[13] = test system: MEF cells; assay: MTT cell survival upon menadione oxidative stress, MEF; assay type: cell-based
Excerpt: The effect on the IC50 for menadione is almost 4-fold.

[14] = target: Usp14 (Homo sapiens, UniProt P54578); assay: Mass spectrometry analysis of IU1 inhibited Usp14; assay type: binding
Chain of Usp14 (P54578 whole entry): as above

[15] = target: T4, Usp14/proteasome complexes (Homo sapiens, UniProt P54578); assay: In vitro ubiquitin chain trimming assay with polyubiquitinated cyclin B; assay type: biochemical
T4 construct: GST (N, cleaved yes); made in house; host or cells: E. coli Rosetta 2 (DE3) for Usp14
Experimental: Immunoblot was performed using an antibody specific for human cyclin B (CCNB).
as §3
To separate chain trimming from substrate degradation, these assays were done in the presence of proteasome inhibitors. The effectiveness of the proteasome inhibitors is evidenced by the accumulation of unmodified cyclin B in the assay (FIG. 15).

[16] = test system: UbB, α6, α7; assay: Quantitative RT-PCR of ubiquitin and proteasome subunit genes in MEFs; assay type: cell-based; conditions: +/+ and Usp14−/− MEFs, graded doses, 6 hr
[17] = test system: ataxin-3; assay: Ataxin-3 depletion in MEF cells (immunoblot); assay type: cell-based; conditions: 50 or 100 μM IU1
Experimental: as §1

[18] = test system: oxidized proteins; assay: Oxidized protein accumulation after menadione (DNPH immunoblot); assay type: cell-based; conditions: MEFs, 75 μM IU1 4 hours, then 63 μM menadione 45 minutes
Excerpt: Oxidized proteins form another class of proteasome substrates that play an important role in human health. Harmful oxidized proteins accumulate upon ageing and are implicated in a variety of age-related diseases and disorders (Stadtman (2006) Protein oxidation and aging. Free Radic. Res. 40, 1250-1258; Ahmed et al. (2007) Protein oxidative modifications and replicative senescence of WI-38 human embryonic fibroblasts. Ann. NY Acad. Sci., 1119, 88-96; Moskovitz et al. (2001). Methionine sulfoxide reductase (MsrA) is a regulator of antioxidant defense and lifespan in mammals. Proc. Nat. Acad. Sci. USA, […], 12920-12925.). Protein oxidation was induced by treating cells with menadione, and oxidized species were visualized using an antibody specific for protein carbonyls. […] The cells were lysed and lysates were incubated with DNPH and immunoblotted with anti-DNPH antibody to assay for oxidized proteins.

[19] = test system: HEK293 cells; assay: MTT cell survival upon menadione oxidative stress, HEK293; assay type: cell-based, human; conditions: 6 hr, menadione 4 hr
[20] = target: T5, Usp14/26S proteasome complexes (Homo sapiens, UniProt P54578); assay: Ub-AMC hydrolysis by VS-proteasomes reconstituted with recombinant Usp14; assay type: biochemical
T5 construct: GST (N, cleaved yes); made in house; host or cells: E. coli Rosetta 2 (DE3) for Usp14
Experimental: Compounds were screened for Usp14/26S inhibition in 384-well low-volume plates in duplicate. Data processing was done by a robust Z-score method and each compound was plotted using Spotfire software. Compounds over the cut-off of Z>5 were mostly autofluorescent and were therefore not counted. To exclude quenching compounds that only affect AMC fluorescence, 312 primary hits were tested for quenching of AMC amine, and pure quenchers were scored as false-positives and excluded from further analysis (FIG. 8B).
The data plot of each experiment was fit into a four parameter logistic model (the Hill-slope model) based on guidelines from the NIH Chemical Genomics Center.

[21] = test system: glial fibrillary acidic protein (GFAP); assay: GFAP depletion in MEF cells (immunoblot); assay type: cell-based; conditions: MEF cells, 25, 50 or 100 μM IU1
Experimental: as §1

[22] = test system: MEF cells; assay: TUNEL apoptosis assay; assay type: cell-based; conditions: 100 μM IU1, 6 hr
Experimental: as §2

[23] = Hydrogen peroxide toxicity; assay type: cell-based; conditions: data not shown
[24] = target: T4, Usp14/proteasome complexes; assay: Usp14 binding to purified proteasome (immunoblot); conditions: various concentrations of IU1
Excerpt: The asterisk (*) denotes a nonspecific signal generated by the anti-Usp14 antibody.

[25] = test system: murine Psmb5 promoter; assay: Psmb5 promoter luciferase reporter in MEFs; assay type: cell-based; conditions: wild-type and Usp14−/− MEFs, 25 or 50 μM, 8 hr
Experimental: For normalization of luciferase activity, a control experiment using the promoter-less pGL3 plasmid was performed. Values are mean±SD from three independent experiments. RLU, relative light units.

[26] = target: Isopeptidase T (IsoT) (Homo sapiens, UniProt P45974); assay: Isopeptidase T deubiquitinase activity; assay type: biochemical; conditions: 8 μM, 17 μM
Chain of Isopeptidase T (IsoT) (P45974 whole entry): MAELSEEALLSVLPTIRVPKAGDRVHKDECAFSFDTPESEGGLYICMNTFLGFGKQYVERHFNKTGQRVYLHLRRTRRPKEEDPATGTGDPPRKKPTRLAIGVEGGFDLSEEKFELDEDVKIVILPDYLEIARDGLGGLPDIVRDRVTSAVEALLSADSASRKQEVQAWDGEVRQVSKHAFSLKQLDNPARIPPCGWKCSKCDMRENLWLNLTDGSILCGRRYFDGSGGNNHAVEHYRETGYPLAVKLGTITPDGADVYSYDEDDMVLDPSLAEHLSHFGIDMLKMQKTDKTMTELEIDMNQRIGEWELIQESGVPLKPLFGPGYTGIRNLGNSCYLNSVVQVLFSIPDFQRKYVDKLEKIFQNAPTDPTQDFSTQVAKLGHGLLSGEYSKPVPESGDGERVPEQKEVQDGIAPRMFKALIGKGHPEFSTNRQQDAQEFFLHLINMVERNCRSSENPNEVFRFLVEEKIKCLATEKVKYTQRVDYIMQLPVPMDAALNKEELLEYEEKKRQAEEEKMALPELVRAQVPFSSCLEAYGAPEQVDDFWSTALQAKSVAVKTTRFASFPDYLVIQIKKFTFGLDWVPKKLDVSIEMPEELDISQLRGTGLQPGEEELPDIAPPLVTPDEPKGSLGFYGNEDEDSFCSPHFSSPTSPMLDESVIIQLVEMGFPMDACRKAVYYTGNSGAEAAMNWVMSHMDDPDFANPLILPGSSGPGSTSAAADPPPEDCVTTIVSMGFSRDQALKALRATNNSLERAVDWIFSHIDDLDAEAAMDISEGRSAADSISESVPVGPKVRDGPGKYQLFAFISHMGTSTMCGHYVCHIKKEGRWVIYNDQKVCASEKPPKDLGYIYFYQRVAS

[27] = test system: mCherry-NBR1; assay: mCherry-NBR1 immunofluorescence in wild-type MEFs; assay type: cell-based; conditions: 200 μM, 6 hr

## Cc1cc(C(=O)CN2CCCC2)c(C)n1-c1ccc(F)cc1 [IU1, 1-[1-(4-fluorophenyl)-2,5-dimethlypyrrol-3-yl]-2-pyrrolidin-1-ylethanone]
[1]
  inhibition of other tested deubiquitinating enzymes: failed to significantly inhibit
[1]; lower concentrations of Ub-AMC
  specificity for USP14 versus Ub-AMC concentration: observed independently of Ub-AMC concentration
[2]
  integrity of proteasome: does not affect the integrity of proteasome
[3]
  degradation of GFP-ODC: little or no effect
[4]
  concentration at which effects on cell viability became apparent: over 100 μM
[5]; 50 μM added to medium, MEFs
  time to reach steady-state concentration within cells: ≤ 1 h
[5]; 50 μM added to medium, MEFs, LC/MS
  steady-state concentration within cells: ~19 µM
[5]; 50 μM for one hour, then fresh media
  release of internalized compound from wild-type MEF cells: rapid release
[5]; 1 hr to 48 hr
  concentration in serum-containing media of Usp14−/− MEF cells: comparable concentration
[6]; 120 μM
  inhibition of cellular proliferation at 120 μM: only a slight inhibition
[6]; below 120 μM
  inhibition of cellular proliferation at lower concentrations: no apparent inhibition
[7]; 34 μM IU1
  degradation of Ub-cyclin B by Usp14-containing proteasomes: stimulated the activity of Usp14-containing proteasomes
  substrate degradation or chain trimming by proteasomes that lack Usp14: no effect
[7]; catalytically inactive USP14
  cyclin B degradation in the presence of USP14-CA: does not affect cyclin B degradation
[8]
  inhibition of proteasome-bound Uch37: does not inhibit
[9]
  inhibition of Usp14 not complexed to the proteasome: failed to inhibit
[10]; MEF cells, 25 to 100 μM, 6 hours
  Tau levels: reduced Tau levels at all concentrations tested
[10]; MEF cells, 25 to 100 μM, quantitative RT-PCR
  Tau mRNA levels: No effect
[10]; wild-type MEF, 75 μM IU1 and/or BafA1, 6 hrs
  dependence of Tau degradation stimulation on autophagy: not mediated by autophagy
[11]
  TDP-43 level in cells: similarly depleted
[12]
  concentration in serum-containing media of HEK293 cells: comparable concentration
[13]
  effect on cell survival upon oxidative stress: show this effect as well
[14]
  covalent IU1-Usp14 adducts: failed to detect any covalent IU1-Usp14 adducts
[15]; proteasome purified and assayed in presence of ADP
  concentration effective at inhibition of chain trimming: approximately 5 μM
[15]; with Usp14, presence of proteasome inhibitors
  chain trimming, Usp14/proteasome complexes: reduced the chain trimming to a level similar to that of the proteasome complexes that lacked Usp14
[15]; without Usp14, presence of proteasome inhibitors
  release of ubiquitin chains from cyclin B, proteasomes that lack Usp14: little or no effect
[16]
  transcription of UbB: does not induce the transcription
  transcription of α6: does not induce the transcription
  transcription of α7: does not induce the transcription
[17]
  ataxin-3 level in cells: similarly depleted
[18]
  accumulation of oxidized proteins: reduced
[19]; IU1 50 uM
  effect on the IC50 for menadione: ~4 fold
[19]; compound 50 uM
  menadione toxicity: reduced this toxicity substantially
[20]; IU1 100 μM added 30 min after 1 μM Ub-AMC, 2.5 nM proteasome, 30 nM USP14
  lag period of inhibition: without a detectable lag period
[20]; activity after up to three ultrafiltration spins
  reversibility of inhibition of Usp14: rapidly reversible
[20]; proteasome-bound Usp14, Ub-AMC
  inhibition of Usp14 deubiquitinase: potent inhibitor of proteasome-bound Usp14
[21]
  GFAP level in cells: similarly depleted
[22]
  induction of apoptosis: did not noticeably induce apoptosis
[23]
  hydrogen peroxide toxicity: reduced the toxicity
[24]
  effect on Usp14 complexing with the proteasome: did not antagonize Usp14 complexing with the proteasome
[25]
  transcription of Psmb5 gene: does not induce the transcription
[26]
  inhibition of Isopeptidase T: lack of inhibition

## CO/C1=C\C(C)=C\[C@@H](C)[C@@H](O)[C@@H](C)C/C(C)=C/C=C/[C@H](OC)[C@@H]([C@@H](C)[C@@H](O)[C@H](C)[C@@]2(O)C[C@@H](O)[C@H](C)[C@@H](C(C)C)O2)OC1=O [bafilomycin A1]
[27]
  immunofluorescence signal of mCherry-NBR1: significantly increased
